Measurements as given in patent publication US12195451B2 (priority 2015, dated 2025).

Columns and labels:
ICP0-null HSV-N212eGFP = format: cell-based, Herpes Simplex Virus type-1 (HSV-1)
[1] = test system: Influenza H1N1 A/Puerto Rico/8/34 (PR8); format: cell-based
[2] = test system: adenovirus expressing firefly luciferase; experiment: Adenovirus transduction in normal mouse muscle tissue cores; format: cell-based, Adenovirus Serotype 5; settings: 10, 20 or 40 uM for 4 hours, 1×10^7 pfu/well, 36 hours post-infection
[3] = test system: adenovirus expressing firefly luciferase; format: cell-based, Adenovirus Serotype 5
[4] = test system: adeno-associated virus expressing firefly luciferase; format: cell-based, AAV serotype 6
MVA-eGFP = format: cell-based, modified vaccine ankara (MVA); settings: human renal carcinoma (786-0) cells; infected after 4 hours, MOI 0.01; 48 h and 64 h after infection
[5] = test system: adenovirus expressing firefly luciferase; experiment: Adenovirus transduction in normal mouse brain tissue cores; format: cell-based, Adenovirus Serotype 5; settings: 10, 20 or 40 uM for 4 hours, 1×10^7 pfu/well, 36 hours post-infection
[6] = test system: Salmonella typhimurium strains TA98 and TA100
[7] = test system: adenovirus expressing firefly luciferase; experiment: Adenovirus transduction in A549 cancer cells (MOI 0.1, luciferase luminescence); format: cell-based, Adenovirus Serotype 5; settings: pre-treated 2 hours at 21 uM to 120 or 160 uM, 40 hours post-infection
A/FM1 (H1N1) = test system: A/FM1 (H1N1); set-up: species or system Influenza A H1N1; settings: in vivo
[8] = test system: VSV-Maraba-MG1-eGFP virus; format: cell-based, Maraba MG-1
IFN-responsive promoter = settings: cited from earlier work
[9] = test system: IFN-responsive U251 human glioma cells; settings: cited from earlier work
[10] = test system: virus-induced cellular genes; settings: gene expression microarrays; cited from earlier work

Structure (SMILES) | HSV-1 replication (eGFP fluorescence and HSV titers) (ICP0-null HSV-N212eGFP) | Adenovirus transduction in normal muscle tissue [2] | adenovirus vector production (luciferase activity, fold increase vs untreated) [3] | adeno-associated virus vector production (luciferase activity, fold increase vs untreated) [4] | MVA vaccine strain infection of cells (eGFP fluorescence) (MVA-eGFP) | Adenovirus transduction in normal brain tissue [5] | Adenovirus transduction in cancer cells (fold increase luciferase luminescence vs adenovirus alone) [7] | further results
COc1ccccc1CN1C(=O)C(Cl)=C(Cl)C1O (stereo not drawn) [CM01025, 3,4-Dichloro-5-hydroxy-1-(2-methoxy-benzyl)-1,5-dihydro-pyrrol-2-one] | enhance Herpes Simplex Virus type-1 (HSV-1) replication | – | – | – | – | – | – | –
CN1C(=O)C(Cl)=C(Cl)C1O (stereo not drawn) [CM01031, 3,4-Dichloro-5-hydroxy-1-methyl-1,5-dihydro-pyrrol-2-one] | – | – | – | – | – | – | – | PR8 titers, MDCK (NBL-2) cells [1]: Enhancement of PR8; PR8 titers, MDCK.2 cells [1]: Enhancement of PR8
O=C1C(Cl)=C(Cl)C(O)N1Cc1ccccc1 (stereo not drawn) [MD01145, α,β-dichloro-γ-hydroxy-N-benzyl-crotonic lactam] | enhance Herpes Simplex Virus type-1 (HSV-1) replication | enhance adenovirus transduction | enhance the production | enhance the production | can be enhanced | enhance Adenovirus transduction | – | dose-dependent increase in the number of revertants [6]: does not produce a dose-dependent increase; mutagenic potential [6]: not mutagenic
C#CCN1C(=O)C(Cl)=C(Cl)C1O (stereo not drawn) [MD01151, 3,4-Dichloro-5-hydroxy-1-prop-2-ynyl-1,5-dihydro-pyrrol-2-one] | enhance Herpes Simplex Virus type-1 (HSV-1) replication | – | – | – | can be enhanced | – | enhance Adenovirus transduction | –
O=c1[nH]ncc(Cl)c1Cl [MD02026, 4,5-Dichloro-2H-pyridazin-3-one] | – | enhance adenovirus transduction | enhance the production | enhance the production | can be enhanced | enhance Adenovirus transduction | – | –
O=C1C(Cl)=C(Cl)C(O)N1CCc1ccccc1 (stereo not drawn) [MD03009, 3,4-dichloro-5-hydroxy-1-phenethyl-1H-pyrrol-2(5H)-one] | – | – | – | – | can be enhanced | – | enhance Adenovirus transduction | –
O=C1C(Cl)=C(Cl)C(O)N1CCN1CCOCC1 (stereo not drawn) [MD03011, 3,4-dichloro-5-hydroxy-1-(2-morpholinoethyl)-1H-pyrrol-2(5H)-one] | – | enhance adenovirus transduction | – | – | can be enhanced | enhance Adenovirus transduction | enhance Adenovirus transduction | A/FM1 (H1N1) production in ovo (plaque assay titer, HA titer by HPLC AUC) (A/FM1 (H1N1)): enhances A/FM1 (H1N1) production
COS(C)(=O)=O [MMS, methyl methanesulfonate, reference compound] | – | – | – | – | – | – | – | reversion rate (number of revertants) [6]: high number of revertants
O=C1OC(c2ccccc2)C(Cl)=C1Cl (stereo not drawn) [VSe1, 3,4-dichloro-5-phenyl-2,5-dihydrofuran-2-one, reference compound] | enhance Herpes Simplex Virus type-1 (HSV-1) replication | – | enhance the production | enhance the production | can be enhanced | – | enhance Adenovirus transduction | replication / spread of oncolytic virus MG1 (eGFP expression) [8]: enhance the replication; IFN-induced transcriptional activity (IFN-responsive promoter): inhibit IFN-induced transcriptional activity; IFN-mediated protection of cells to VSVΔ51 infection [9]: suppress IFN-mediated protection; virus-induced cellular genes whose transcription is repressed [10]: > 95%
